We go through one compound from patent US7247317B2, “Compositions comprising phenylaminothiophenacetic acid derivatives for the treatment of acute or adult respiratory distress syndrome (ARDS) and infant respiratory distress syndrome (IRDS)” (Altana Pharma AG, priority 1998, dated 2007).

This assay concerns Sprague Dawley rats. Nature of the assay: Lung lavage model of ARDS in ventilated rats: arterial oxygen partial pressure (PaO2). Format: in vivo, rat. The conditions noted are these: for PaO2: 120 min, mean ± SD. From the text:
Anesthetized Sprague Dawley rats are artificially ventilated with pure oxygen and a positive endexiratory pressure (PEEP; in order to ensure oxygenation of the rats) and lavaged until their endogenous lung surfactant is washed out [D. Häfner, R. Beume, U. Kilian, G. Kraznai and Burkhard Lachmann: Dose-response comparison of five lung surfactant (LSF) preparations in an animal model of adult respiratory distress syndrome (ARDS); D. Häfner, P.-G. Germann, D. Hauschke, Pulmonary Pharmacology (1994) 7, 319-332]. This is manifested by the fact that in the animals the preliminary values of the arterial oxygen partial pressure (PaO2) of 500-550 mmHg (in the case of pure oxygen ventilation and PEEP) decrease to values of 50-110 mmHg. Animals of the control group which are not treated with lung surfactant remain with their PaO2 at these low values throughout the observation period. 60 minutes after the PaO2 has decreased to these values, lung surfactant or lung surfactant together with 4-(2,6-dichloroanilino)-3-thiopheneacetic acid is instilled intratracheally. The blood gases are determined 30, 60, 90 and 120 minutes after instillation.
In Table 1 below, in line A the average values (± standard deviation) of the PaO2 are indicated in mmHg for the time 120 minutes (constant PEEP of 8 cm H2O) after intratracheal instillation of lung surfactant 1 h after the last lavage. The table contains data about the values after a sole i.v. administration of 4-(2,6-dichloroanilino)-3-thiopheneacetic acid (Eltenac) in comparison to untreated controls. It can be seen from the table that the sole administration of Eltenac has no influence on the PaO2. This follows by comparison with the untreated control animals. The administration of lung surfactant (25 or 100 mg/kg) leads to a rise in the PaO2. […] In Table 2, in line A the PaO2 values after joint intratracheal (i.tr.) administration of lung surfactant together with Eltenac are indicated in increasing dosages. […]

With `O=C(O)Cc1cscc1Nc1c(Cl)cccc1Cl` [Eltenac, 4-(2,6-dichloroanilino)-3-thiopheneacetic acid], the PaO2 runs as follows: (Eltenac i.tr. 3.0 mg/kg alone after last lavage) 92 ± 69 mmHg; (Eltenac i.v. 22.1 mg/kg alone, directly after lavage, PEEP 8 cm H2O) 82 ± 35 mmHg. Besides, the “influence on the PaO2 (in words)” value (sole administration of Eltenac vs untreated control animals) is “no influence”.
